{"source": "patent US5300304A", "about": "“Pulsatile once-a-day delivery systems for minocycline” (priority 1992, dated 1994)", "key": {"[1]": {"conditions": "taken without food; cited from earlier work"}, "[2]": {"system": "gram-negative and gram-positive bacteria", "conditions": "PDR 43rd Ed.; cited from earlier work"}}, "note": "Where two headings read alike, the source gives them in different places.", "data": [{"smiles": "CN(C)c1ccc(O)c2c1C[C@H]1C[C@H]3[C@H](N(C)C)C(=O)C(C(N)=O)=C(O)[C@@]3(O)C(=O)C1=C2O", "note": "[minocycline, 7-dimethylamino-6-deoxy-6-demethyltetracycline]", "values": [{"measurement": "bioavailability of minocycline in the gastrointestinal tract", "setting": "duodenum, based upon 100 percent absorption in the stomach", "value": 106, "unit": "%"}, {"measurement": "absorption in the lower gastrointestinal tract", "setting": "human patients, intubation", "value": "reduced absorption"}, {"measurement": "bioavailability of minocycline in the gastrointestinal tract", "setting": "ileum, based upon 100 percent absorption in the stomach", "value": 58, "unit": "%"}, {"measurement": "bioavailability of minocycline in the gastrointestinal tract", "setting": "jejunum, based upon 100 percent absorption in the stomach", "value": 80, "unit": "%"}, {"measurement": "bioavailability of minocycline in the gastrointestinal tract", "setting": "stomach, reference (100 percent absorption in the stomach)", "value": 100, "unit": "%"}, {"measurement": "half life", "setting": "[1]", "value": "approximately 10 hours"}, {"measurement": "organisms susceptible to minocycline therapy", "setting": "[2]", "value": "wide range of gram-negative and gram-positive bacteria"}]}]}
